# Results filed as inconclusive are left out. Calls of active or inactive are those of the source. No rule for the calls is given here.
# System: C. albicans CaCi-8 + fluconazole, Alamar Blue growth, 48 h
# Test: resistant C. albicans growth inhibition with fluconazole, dose response, CaCi-8 strain, Alamar Blue fluorescence (AID 2423)
row,Compound,EC50
1,Cc1cc(SCC(=O)N/N=C/c2ccc(O)c(O)c2O)c(C)cc1Br,884 nM
2,N#C/C(C(N)=O)=c1/ccc2c(c1)N1C3=C(CCCC3)CC3CCCCC31N=2 (centres undefined),3120 nM
3,CCOC(=O)c1cnc(-n2cc(C)cn2)nc1Nc1ccccc1OCC,12500 nM
4,O=C(Nc1cccc(-c2cn3c(n2)SCC3)c1)c1ccc(Br)o1,2710 nM
5,CCOC(=O)N1C(=O)C2(CCCCC2)N(c2ccccc2Cl)C1=S,1990 nM
6,CCc1cc(=S)n2c([nH]c3ccccc32)c1C#N,513 nM
7,CC(C)n1c(N2CCN(C(=O)Nc3ccc(Cl)cc3)CC2)nc2ccccc21,> 15000 nM (inactive)
8,CN1/C(=C\C(=O)C[n+]2ccc(C(=O)c3ccccc3)cc2)C(C)(C)c2ccccc21,4060 nM
9,CC(C)c1ccc2oc(-c3ccc(NC(=O)c4ncn[nH]4)cc3)nc2c1,> 16000 nM (inactive)
10,C[C@]12CCC3[C@@H](CC[C@H]4C[C@@H](O)CC[C@]34C)C1CCC2=O (some centres undefined),1480 nM
11,CCCCc1c(O)nc(SCC(=O)Nc2cccc3ccccc23)n(-c2ccccc2OC)c1=O,7770 nM
12,CC[C@@H]1C=CC=CC[C@H](C)[C@@H](O)[C@@H](C)C(=O)[C@H](C)[C@@H](O)[C@H](C)C(=O)[C@H](C)[C@@H](O)[C@H](C)C=CC(=O)O[C@H]2[C@@H](C)[C@@H](CC1)O[C@@]1(CC[C@@H](C)[C@@H](C[C@H](C)O)O1)[C@@H]2C,654 nM
13,OCc1ccnc2c(O)cccc12,> 16000 nM (inactive)
14,CC1(C)CC(N=Cc2c(O)n(Cc3ccc4c(c3)OCO4)c(=O)c3ccccc23)CC(C)(C)N1,3850 nM
15,COc1cccc(C(=O)Oc2c(CN3CCOCC3)cc(Cl)c3cccnc23)c1,1950 nM
16,CO/N=C/c1ccc(N2CCN(C(=O)c3ccc(C)cc3)CC2)c([N+](=O)[O-])c1,2100 nM
17,Cc1ccc([N+](=O)[O-])cc1-c1[nH]c(-c2ccc(O)c(O)c2)nc1-c1ccccc1,> 15000 nM (inactive)
18,OCc1ccc(O)c2ncccc12,12400 nM
19,Cc1c2ccccc2nc2c(F)c(NCCO)c(F)c(F)c12,> 16000 nM (inactive)
20,O=C(NNC1=C(C(=O)C(F)(F)F)CCC1)c1ccc(Cl)cc1,1040 nM
21,Cc1ccc(-c2nnc(NC(=O)c3ccc([N+](=O)[O-])o3)o2)c(C)c1,2160 nM
22,Cc1ccc(C(=O)NC(=O)OCCn2c(C)cnc2[N+](=O)[O-])cc1,> 16000 nM (inactive)
23,Cc1ccc(C(=O)c2coc3c2C(=O)C(=O)c2ccccc2-3)cc1,146 nM
24,Cc1c(CCOC(=O)CC23CC4CC(CC(C4)C2)C3)sc[n+]1Cc1ccccc1,10600 nM
25,CCOc1ccccc1C(=O)Nc1ccc2nc3n(c(=O)c2c1)CCCCC3,2510 nM
26,O=C(O)CCCCCN1C(=O)/C(=C\c2ccncc2)SC1=S,898 nM
27,Cc1ncc(CO)c(/C=N/NC(=S)Nc2ccc(Cl)c(Cl)c2)c1O,1880 nM

row,Compound,EC50
1,O=C(Nc1ccccc1N1CCOCC1)c1cc(F)cc(F)c1,2660 nM
2,CCCC(=O)NC(c1ccccc1OC)c1ccc2cccnc2c1O (centres undefined),1040 nM
3,O=C(NCc1ccc(Cl)cc1)c1n[nH]c([N+](=O)[O-])c1Cl,> 16000 nM (inactive)
4,Cc1cc(/C=N/NC(N)=S)c(C)n1-c1cccc(Cl)c1,1650 nM
5,O=C(c1ccc(C(=O)N2CCN(c3ccccc3F)CC2)nc1)N1CCN(c2ccccc2F)CC1,> 16000 nM (inactive)
6,CCCc1cc(=O)[nH]c(SCc2csc(-c3ccccc3)n2)n1,1390 nM
7,COc1ccc(/C=N/NC(=O)c2cc(O)c(O)c(O)c2)cc1Cn1cc([N+](=O)[O-])cn1,1440 nM
8,COc1ccc2[nH]c3c(C)c4ccncc4c(C)c3c2c1,1440 nM
9,CC1=C/C(=N\NC(=S)NCCc2ccccc2)CC(C)(C)C1,> 15000 nM (inactive)
10,Cc1ccc(C(=O)Nc2nc3ccccc3c(=O)s2)cc1,458 nM
11,Cc1cc(-c2cc(C(=O)O)c3ccccc3n2)c(C)s1,2270 nM
12,O=C(CCc1ccccc1)NNC(=S)NC(=O)c1ccc(Cl)cc1,1990 nM
13,CN1CCN(C(c2ccc(Br)cc2)c2cc(Cl)c3cccnc3c2O)CC1 (centres undefined),624 nM
14,O=C1/C(=C\c2cccnc2)SC(=S)N1C1CCS(=O)(=O)C1 (centres undefined),> 16000 nM (inactive)
15,Cc1ccc(S(=O)(=O)N(C)c2ccc(OCC(=O)Nc3nnc(C4CC4)s3)cc2)cc1,708 nM
16,Cc1ccsc1C(=O)OCC(=O)Nc1sccc1C(N)=O,866 nM
17,CCn1c(COc2ccc(=O)n(-c3ccccc3)n2)nnc1SCc1cccc(OC)c1,> 16000 nM (inactive)
18,COc1ccc(NS(=O)(=O)c2ccc3ccccc3c2)c2ncccc12,3790 nM
19,CCN1/C(=C/c2cccc[n+]2C)Sc2ccc(OC)cc21,10700 nM
20,COc1cc([N+](=O)[O-])cc(/C=N/NC(=O)c2ccc(NC(=O)c3ccc(C)cc3)cc2)c1O,2340 nM
21,CCCCC(=O)NNC(=S)NC(=O)c1ccc(C)cc1,7760 nM
22,O=C(NNC(=S)Nc1cccc(C(F)(F)F)c1)c1ccc(Cl)cc1Cl,1970 nM
23,O=C(Cc1ccccc1)N/N=C/c1cc(Br)cc(Cl)c1O,> 15000 nM (inactive)
24,O=C(O)c1cnc(-c2ccccc2)nc1Sc1ccccc1Cl,> 16000 nM (inactive)
25,CCCCCc1ccc(-c2ccc(/C=C/C(=O)O)cc2)nc1,957 nM
26,CCNc1nc(N)nc(-c2cc(Cl)ccc2O)n1,1900 nM
27,CC(C)c1ccc(OCC(=O)Nc2cccc(C(=O)Nc3ccccc3C(=O)O)c2)cc1,> 15000 nM (inactive)

# — PubChem BioAssay AID2423 (Broad Institute, 2010)
